{
  "source": "patent US20120015344A1",
  "about": "“Methods, compositions, and apparatus for the detection of viral strains” (priority 2010, published 2012)",
  "key": {"[1]": {"system": "H5 Hemagglutinin (HA) Protein from Influenza Virus, A/Vietnam/1203/04 (H5N1)", "type": "binding, Influenza A virus H5N1 (A/Vietnam/1203/04)"}, "H5N1": {"system": "H5N1", "conditions": "cited from earlier work"}, "[2]": {"target": "T1, H1 hemagglutinin (HA) protein, A/South Carolina/1/18 (H1N1) (Influenza A virus, UniProt Q9WFX3)", "T1 sequence (Q9WFX3 18-566 limits assumed)": "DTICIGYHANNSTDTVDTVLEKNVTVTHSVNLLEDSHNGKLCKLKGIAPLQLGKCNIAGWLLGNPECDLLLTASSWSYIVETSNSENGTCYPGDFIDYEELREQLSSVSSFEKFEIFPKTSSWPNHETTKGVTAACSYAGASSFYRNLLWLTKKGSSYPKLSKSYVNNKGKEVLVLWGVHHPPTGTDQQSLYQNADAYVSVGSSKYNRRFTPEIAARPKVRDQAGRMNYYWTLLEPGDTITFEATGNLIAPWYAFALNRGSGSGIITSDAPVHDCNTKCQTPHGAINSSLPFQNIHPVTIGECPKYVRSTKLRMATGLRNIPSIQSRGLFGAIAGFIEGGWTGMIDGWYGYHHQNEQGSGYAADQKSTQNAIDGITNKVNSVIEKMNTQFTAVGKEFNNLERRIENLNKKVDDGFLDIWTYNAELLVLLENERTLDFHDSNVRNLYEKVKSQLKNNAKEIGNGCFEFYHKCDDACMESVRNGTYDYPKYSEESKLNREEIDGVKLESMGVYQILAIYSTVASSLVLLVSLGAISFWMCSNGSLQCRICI", "type": "binding, Influenza A virus H1N1 (A/South Carolina/1/18)"}, "[3]": {"target": "T1, H1 hemagglutinin (HA) protein, A/South Carolina/1/18 (H1N1)", "type": "binding, Influenza A virus H1N1 (A/South Carolina/1/18)", "remark": "listed apart in the source"}, "[4]": {"system": "H5 Hemagglutinin (HA) Protein from Influenza Virus, A/Vietnam/1203/04 (H5N1)", "type": "binding, Influenza A virus H5N1 (A/Vietnam/1203/04)", "remark": "listed apart in the source"}},
  "note": "Where “and” joins values, the source holds several entries; their conditions need not be identical. Identical values can stand only once. Entries after “also recorded” stand apart in the source; their conditions may differ. Like-named read-outs stand apart in the source and are kept apart here. Marks after values point to notes of the source that are not given here.",
  "data": [
    {"substance": "Neu5Acα2-3Galβ1-4GlcNAcβ-SpNH-LC-LC-Biotin [3′SLN]", "values": [
      {"measurement": "binding between H5 and glycan (avidity, from ΔQ)", "setting": "[1]", "result": "statistically higher avidity; also recorded: high avidity of binding"},
      {"measurement": "Predicted to Bind H5N1", "setting": "H5N1", "result": "Yes"}
    ]},
    {"substance": "Neu5Acα2-3Galβ1-4[Fucα1-3]GlcNAcβ-SpNH-LC-LC-Biotin [3′SLe^x]", "values": [
      {"measurement": "Mean ΔQ ± S.D. (n = 3)", "setting": "[2]", "result": "0.08906 ± 0.0045^b mC and 0.1186 ± 0.0180^b mC"},
      {"measurement": "Mean ΔQ ± S.D. (n = 3)", "setting": "[3]", "result": "0.2259 ± 0.0115^f mC and 0.2974 ± 0.0001^f mC"},
      {"measurement": "Predicted to Bind H5N1", "setting": "H5N1", "result": "Yes"},
      {"measurement": "binding between H5 and glycan (avidity, from ΔQ)", "setting": "[4]", "result": "high avidity of binding"}
    ]},
    {"substance": "Neu5Acα2-3[GalNAcβ1-4]Galβ1-4GlcNAcβ-SpNH-LC-LC-Biotin [CT/Sda]", "values": [
      {"measurement": "Predicted to Bind H5N1", "setting": "H5N1", "result": "No"}
    ]},
    {"substance": "Neu5Acα2-3[Galβ1-4GlcNAcβ1-3]2β-SpNH-LC-LC-Biotin [3′S-Di-LN]", "values": [
      {"measurement": "Predicted to Bind H5N1", "setting": "H5N1", "result": "Yes"}
    ]},
    {"substance": "Neu5Acα2-6Galβ1-4GlcNAcβ-SpNH-LC-LC-Biotin [6′SLN]", "values": [
      {"measurement": "Mean ΔQ ± S.D. (n = 3)", "setting": "[1]", "result": "0.1388 ± 0.0056^h mC"},
      {"measurement": "binding between H5 and glycan (avidity, from ΔQ)", "setting": "[1]", "result": "statistically lower binding"},
      {"measurement": "Predicted to Bind H5N1", "setting": "H5N1", "result": "No"}
    ]},
    {"substance": "Neu5Acα2-6[Galβ1-4GlcNAcβ1-3]2β-SpNH-LC-LC-Biotin [6′S-Di-LN]", "values": [
      {"measurement": "Predicted to Bind H5N1", "setting": "H5N1", "result": "No"}
    ]},
    {"substance": "Neu5Acα2-8Neu5Acα2-8Neu5Acα2-3Galβ1-4Glcβ-SpNH-LC-LC-Biotin [GT3]", "values": [
      {"measurement": "Predicted to Bind H5N1", "setting": "H5N1", "result": "No"},
      {"measurement": "Mean ΔQ ± S.D. (n = 3)", "setting": "[4]", "result": "0.2881 ± 0.0172^f mC"},
      {"measurement": "binding between H5 and glycan (avidity, from ΔQ)", "setting": "[4]", "result": "statistically lower binding"}
    ]}
  ]
}
